These results are taken from patent US9096624B2 (OSI Pharmaceuticals, LLC, priority 2009, dated 2015).

What is called IC50 is the concentration that inhibits the measured activity by half.

Experiment [1] concerns the target T1, FAK (Homo sapiens, UniProt Q05397). The experiment is described as follows: Cell-based capture ELISA for inhibition of FAK autophosphorylation [pY397] in MiaPaCa2 cells. As for the experimental part:
Cell-Based Assays for Inhibition of FAK Autophosphorylation: MiaPaCa2 and U87MG
ELISA kit from Invitrogen (KHO0441).
Reagents Provided in Biosource FAK [pY397]
The cells were then suspended in cell assay medium.
(In general: In an ELISA, binding on a coated surface is turned into a signal by an enzyme label.)

Experiment [2] deals with T1, FAK. The experiment is described as follows: biochemical.
[3] abbreviates: MIA-PaCa2 cells on fibronectin, 2 h, no plasma, read-out: Mean FAK Cell Mechanistic IC50 MIA-PaCa2.
Setting [4] is: MIA-PaCa2 cells, + 50% human plasma, read-out: Mean FAK Cell Mechanistic IC50 + 50% hP MIA-PaCa2.
Where [5] appears, read: MIA-PaCa2 cells, + 50% mouse plasma (Table 2), read-out: Mean FAK Cell Mechanistic IC50 + 50% mP MIA-PaCa2.

T1 sequence (Q05397 whole entry): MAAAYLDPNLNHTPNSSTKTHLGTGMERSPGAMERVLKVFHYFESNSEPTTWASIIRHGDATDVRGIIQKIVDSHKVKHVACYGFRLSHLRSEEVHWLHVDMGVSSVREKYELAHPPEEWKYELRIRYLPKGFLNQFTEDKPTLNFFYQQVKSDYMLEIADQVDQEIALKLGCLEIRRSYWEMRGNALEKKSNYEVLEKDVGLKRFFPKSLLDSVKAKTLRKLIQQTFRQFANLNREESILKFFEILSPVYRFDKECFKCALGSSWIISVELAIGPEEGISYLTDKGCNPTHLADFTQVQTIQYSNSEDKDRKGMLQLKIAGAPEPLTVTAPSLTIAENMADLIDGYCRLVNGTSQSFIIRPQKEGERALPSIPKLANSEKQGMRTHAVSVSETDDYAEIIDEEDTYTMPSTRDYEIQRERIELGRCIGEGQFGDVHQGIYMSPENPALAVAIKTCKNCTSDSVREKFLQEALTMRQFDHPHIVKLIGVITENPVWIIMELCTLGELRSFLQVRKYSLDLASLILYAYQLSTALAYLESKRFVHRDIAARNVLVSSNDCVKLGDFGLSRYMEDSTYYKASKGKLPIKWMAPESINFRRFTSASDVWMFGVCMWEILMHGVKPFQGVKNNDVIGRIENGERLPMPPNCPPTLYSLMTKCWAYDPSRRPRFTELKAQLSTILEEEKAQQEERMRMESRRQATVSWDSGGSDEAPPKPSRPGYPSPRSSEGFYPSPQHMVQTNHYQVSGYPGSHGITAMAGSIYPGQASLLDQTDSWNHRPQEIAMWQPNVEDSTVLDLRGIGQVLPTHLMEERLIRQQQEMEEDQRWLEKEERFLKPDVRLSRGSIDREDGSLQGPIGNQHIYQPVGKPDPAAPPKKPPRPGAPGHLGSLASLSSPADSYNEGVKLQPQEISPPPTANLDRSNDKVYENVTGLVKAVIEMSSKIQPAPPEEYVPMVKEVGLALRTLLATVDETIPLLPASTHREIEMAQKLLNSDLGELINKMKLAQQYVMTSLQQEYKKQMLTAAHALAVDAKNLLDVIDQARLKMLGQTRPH

Turning to `CCOP(=O)(O)Cc1cccc(Nc2ncc(C(F)(F)F)c(NCc3cccnc3N(C)S(C)(=O)=O)n2)c1` [Example 44, Ethyl hydrogen [3-({4[({2-[methyl(methylsulfonyl)amino]pyridin-3-yl}methyl)amino]-5-(trifluoromethyl)pyrimidin-2-yl}amino)benzyl]phosphonate], the IC50 at FAK [1] (setting [3]) was greater than 10000 nM; on FAK [1] (setting [4]), greater than 10000 nM; against FAK [2] it was less than 1000 nM.

As to `CCOP(C)(=O)Cc1ccc(Nc2ncc(C(F)(F)F)c(NCc3cccnc3N(C)S(C)(=O)=O)n2)cc1` (stereo not shown) [Example 45, Ethyl methyl[4-({4-[({2-[methyl(methylsulfonyl)amino]pyridin-3-yl}methyl)amino]-5-(trifluoromethyl)pyrimidin-2-yl}amino)benzyl]phosphinate], the IC50 at FAK [1] (setting [3]), at FAK [1] (setting [4]) and against FAK [2] was less than 1000 nM each time.

As to `CCOP(=O)(Cc1ccc(Nc2ncc(C(F)(F)F)c(NCc3cccc([S+](C)[O-])c3)n2)cc1)OCC` (stereo not shown) [Example 47, diethyl (4-{[4-{[3-(methylsulfinyl)benzyl]amino}-5-(trifluoromethyl)pyrimidin-2-yl]amino}benzyl)phosphonate], the IC50 at FAK [1] (setting [5]) was 1000 to 10000 nM; against FAK [2], less than 1000 nM.

For the compound `CCOP(=O)(Cc1ccc(Nc2ncc(Cl)c(Nc3ccccc3C(=O)NC)n2)cc1)OCC` [Example 48, Diethyl {4-[(5-chloro-4-{[2-(methylcarbamoyl)phenyl]amino}pyrimidin-2-yl)amino]benzyl}phosphonate], the IC50 on FAK [1] (setting [5]) is 1000 to 10000 nM; against FAK [2], less than 1000 nM.

As to `CCOP(=O)(Cc1ccc(Nc2ncc(Br)c(Nc3ccccc3C(=O)NC)n2)cc1)OCC` [Example 49, Diethyl {4-[(5-bromo-4-{[2-(methylcarbamoyl)phenyl]amino}pyrimidin-2-yl)amino]benzyl}phosphonate], the IC50 at FAK [1] (setting [3]), at FAK [1] (setting [4]) and at FAK [2] was less than 1000 nM throughout.

With `CCOP(=O)(Cc1ccc(Nc2ncc(C(F)(F)F)c(NCc3cccnc3N(C)S(C)(=O)=O)n2)cc1)c1ccccc1` (stereo not shown) [Example 50, Ethyl [4-({4-[({2-[methyl(methylsulfonyl)amino]pyridin-3-yl}methyl)amino]-5-(trifluoromethyl)pyrimidin-2-yl}amino)benzyl]phenylphosphinate], the IC50 on FAK [1] (setting [5]) is 1000 to 10000 nM; at FAK [2], less than 1000 nM.

Regarding `CCOP(=O)(Cc1cccc(Nc2ncc(C(F)(F)F)c(NCc3cccnc3N(C)S(C)(=O)=O)n2)c1)c1ccccc1` (stereo not shown) [Example 51, Ethyl [3-({4-[({2-[methyl(methylsulfonyl)amino]pyridin-3-yl}methyl)amino]-5-(trifluoromethyl)pyrimidin-2-yl}amino)benzyl]phenylphosphinate], the IC50 was greater than 10000 nM at FAK [1] (setting [5]) and less than 1000 nM at FAK [2].

In the case of `CCOP(C)(=O)Cc1ccc(Nc2ncc(C(F)(F)F)c(Nc3ccccc3C(=O)NC)n2)c(OC)c1` (stereo not shown) [Example 52, Ethyl (3-methoxy-4-{[4-{[2-(methylcarbamoyl)phenyl]amino}-5-(trifluoromethyl)pyrimidin-2-yl]amino}benzyl)methylphosphinate], the IC50 on FAK [1] (setting [3]), on FAK [1] (setting [4]) and against FAK [2] was less than 1000 nM throughout.

As to `CCCCOP(=O)(Cc1cccc(Nc2ncc(C(F)(F)F)c(NCc3cccnc3N(C)S(C)(=O)=O)n2)c1)OCCCC` [Example 54, dibutyl [3-({4-[({2-[methyl(methylsulfonyl)amino]pyridin-3-yl}methyl)amino]-5-(trifluoromethyl)pyrimidin-2-yl}amino)benzyl]phosphonate], the IC50 on FAK [1] (setting [5]) was greater than 10000 nM; at FAK [2] it was less than 1000 nM.

`CN(c1ncccc1CNc1nc(Nc2cccc(CP(=O)(OCC(C)(C)C)OCC(C)(C)C)c2)ncc1C(F)(F)F)S(C)(=O)=O` [Example 55, bis(2,2-dimethylpropyl) [3-({4-[({2-[methyl(methylsulfonyl)amino]pyridin-3-yl}methyl)amino]-5-(trifluoromethyl)pyrimidin-2-yl}amino)benzyl]phosphonate]: the IC50 on FAK [1] (setting [5]) was greater than 10000 nM; at FAK [2], less than 1000 nM.

For `COP(=O)(Cc1cccc(Nc2ncc(C(F)(F)F)c(NCc3cccnc3N(C)S(C)(=O)=O)n2)c1)OC` [Example 56, dimethyl [3-({4-[({2-[methyl(methylsulfonyl)amino]pyridin-3-yl}methyl)amino]-5-(trifluoromethyl)pyrimidin-2-yl}amino)benzyl]phosphonate], the IC50 on FAK [1] (setting [3]), on FAK [1] (setting [4]) and at FAK [2] was less than 1000 nM each time.

Take `CCCOP(=O)(OCCC)c1cccc(Nc2ncc(C(F)(F)F)c(NCc3cccnc3N(C)S(C)(=O)=O)n2)c1` [Example 57, dipropyl [3-({4-[({2-[methyl(methylsulfonyl)amino]pyridin-3-yl}methyl)amino]-5-(trifluoromethyl)pyrimidin-2-yl}amino)phenyl]phosphonate]: the IC50 at FAK [1] (setting [5]) is 1000 to 10000 nM; against FAK [2], less than 1000 nM.

As to `CC(C)OP(=O)(OC(C)C)c1cccc(Nc2ncc(C(F)(F)F)c(NCc3cccnc3N(C)S(C)(=O)=O)n2)c1` [Example 58, dipropan-2-yl [3-({4-[({2-[methyl(methylsulfonyl)amino]pyridin-3-yl}methyl)amino]-5-(trifluoromethyl)pyrimidin-2-yl}amino)phenyl]phosphonate], the half-maximal inhibitory concentration (IC50) at FAK [1] (setting [5]) is 1000 to 10000 nM; on FAK [2], less than 1000 nM.

For the compound `CN(c1ncccc1CNc1nc(Nc2cccc(P3(=O)OCC(C)(C)CO3)c2)ncc1C(F)(F)F)S(C)(=O)=O` [Example 59, N-[3-({[2-{[3-(5,5-dimethyl-2-oxido-1,3,2-dioxaphosphinan-2-yl)phenyl]amino}-5-(trifluoromethyl)pyrimidin-4-yl]amino}methyl)pyridin-2-yl]-N-methylmethanesulfonamide], the IC50 at FAK [1] (setting [5]) is 1000 to 10000 nM; against FAK [2], less than 1000 nM.

Take `CN(c1ncccc1CNc1nc(Nc2ccc(P3(=O)OCC(C)(C)CO3)cc2)ncc1C(F)(F)F)S(C)(=O)=O` [Example 60, N-[3-({[2-{[4-(5,5-dimethyl-2-oxido-1,3,2-dioxaphosphinan-2-yl)phenyl]amino}-5-(trifluoromethyl)pyrimidin-4-yl]amino}methyl)pyridin-2-yl]-N-methylmethanesulfonamide]: the IC50 at FAK [1] (setting [3]), on FAK [1] (setting [4]), on FAK [1] (setting [5]) and against FAK [2] was less than 1000 nM in each case.

Take `CCOP(C)(=O)Cc1ccc(Nc2ncc(C(F)(F)F)c(Nc3ccc(Br)c4c3C(=O)N(C)C4)n2)cc1` (stereo not shown) [Example 61, Ethyl [4-({4-[(7-bromo-2-methyl-3-oxo-2,3-dihydro-1H-isoindol-4-yl)amino]-5-(trifluoromethyl)pyrimidin-2-yl}amino)benzyl]methylphosphinate]: the IC50 at FAK [1] (setting [3]) is less than 1000 nM; on FAK [1] (setting [4]), 1000 to 10000 nM; on FAK [2], less than 1000 nM.

On to `CCOP(=O)(Cc1ccc(Nc2ncc(C(F)(F)F)c(Nc3ccc(Br)c4c3C(=O)N(C)C4)n2)c(OC)c1)OCC` [Example 62, Diethyl [4-({4-[(7-bromo-2-methyl-3-oxo-2,3-dihydro-1H-isoindol-4-yl)amino]-5-(trifluoromethyl)pyrimidin-2-yl}amino)-3-methoxybenzyl]phosphonate], for which the IC50 at FAK [1] (setting [3]) is less than 1000 nM; on FAK [1] (setting [4]), 1000 to 10000 nM; against FAK [2] it was less than 1000 nM.
